The text below walks through data of PubChem BioAssay (NCI).

Each structure is given as a SMILES string.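 Interpolation was linear, between the two tested concentrations surrounding the appropriate level; five concentrations were tested over 48 hours in 96-well plates. GI50 is the concentration that inhibits growth by half. TGI: total growth inhibition.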

Holding throughout (assay): inhibition of tumour cell growth, NCI panel, 48 h
Assay [1] has as its system UACC-257 melanoma.
The subject of assay [2] is RXF 393 renal.
The test system of assay [3] is A549 NSCLC.
Assay [4] deals with SK-MEL-5 melanoma.
Assay [5] concerns T-47D breast.
Assay [6] concerns PC-3 prostate.
Assay [7] concerns NCI-H23 lung.
In assay [8] the test system is COLO 205 colon.
The subject of assay [9] is K-562 leukemia.
In assay [10] the test system is OVCAR-4 ovarian.

As for `CCOC(=O)c1c(CN2CCCC2)n(-c2ccccc2)c2cc(Br)c(OC)cc12`, the TGI in assay [1] turned out to be 28.6 µM; in assay [2] it was 17.5 µM; in [3], 28.8 µM; in assay [4] it was 25.3 µM; in assay [5], 38.6 µM; in [6], 77.2 µM. For the same compound, the TGI in assay [7] is 63.3 µM; in assay [8], 25.3 µM; in [9], 43.3 µM; in assay [10], greater than 100 µM.
As for `Nc1nc(=O)n(CC(O)CO)s1` (configuration not stated), the TGI in assay [1], in [2], in assay [3], in [4], in [7] and in assay [8] was greater than 100 µM in each case. Further, the TGI in assay [9] and in assay [10] was greater than 100 µM throughout.
For `CNC(=O)Nc1ccccc1`, the TGI in assay [1], in assay [2], in assay [3], in [4], in assay [5] and in assay [6] was greater than 100 µM throughout. Also, the TGI in assay [7], in assay [8], in assay [9] and in assay [10] was greater than 100 µM in each case.
On to `COc1cc2c(cc1OCCCN1CCN(c3ncnc4ccccc34)CC1)N=CC1CCCN1C2=O` (configuration not stated), for which the GI50 in assay [1] is 0.15 µM; in assay [2], 0.0205 µM; in [3], 0.0356 µM; in assay [4], 0.0168 µM; in [5], 0.0222 µM; in [6], 0.0232 µM. Moreover, the GI50 was 0.0268 µM in [7], 0.0203 µM in [8], 0.0262 µM in assay [9] and 0.0633 µM in assay [10]. The TGI is 0.737 µM in assay [1]; 0.0394 µM in [2]; greater than 47.9 µM in assay [3]; 0.0323 µM in [4]; 0.0757 µM in [5]; 0.0973 µM in assay [6]. For the same compound, the TGI is 0.0819 µM in assay [7], 0.0446 µM in assay [8] and 8.63 µM in assay [10].
In the case of `O=c1/c(=C/c2ccc([N+](=O)[O-])o2)sc2n1[C@@H](c1ccc3c(c1)OCO3)C=C(c1cc(F)c(Cl)cc1Cl)N=2`, the TGI is 34.8 µM in assay [1]; 43.2 µM in assay [2]; greater than 100 µM in assay [3]; 24 µM in assay [4]; 59.3 µM in [5]; greater than 100 µM in [6]. In addition, the TGI in [7] is 46.8 µM; in [8], 71.4 µM; in assay [9] it was greater than 100 µM; in assay [10] it was 32.6 µM.
As for `N#C[S-].[Ce+3].c1cnc2c(c1)ccc1cccnc12.c1cnc2c(c1)ccc1cccnc12.c1cnc2c(c1)ccc1cccnc12`, the TGI was 18.9 µM in [1]; 10.1 µM in assay [3]; 15.2 µM in assay [4]; 75.6 µM in [7]; 13.4 µM in assay [8]; greater than 100 µM in [9]. For the same compound, the TGI in assay [10] turned out to be 20.5 µM.
In the case of `O=C(NNC(=O)c1nsc2ccccc12)c1ccc(Cl)cc1`, the TGI in assay [1] amounted to 48.2 µM; in assay [2] it was 30.3 µM; in assay [3] it was 45.9 µM; in assay [4], 59.2 µM; in assay [7], 59.9 µM; in assay [8], 66 µM. In addition, the TGI in [9] came out at 35.1 µM.
Consider `NC(CC(=O)O)(Cc1ccccc1)C(=O)O` (configuration not stated), for which the TGI in [1], in assay [2], in assay [3], in assay [4], in assay [5] and in assay [6] was greater than 100 µM each time. In addition, the TGI in assay [7], in assay [8], in assay [9] and in assay [10] was greater than 100 µM each time.
As to `C[N+](C)(CCO)CCN1c2ccccc2Sc2ccccc21`, the TGI in assay [2], in [3], in [4], in [5], in [6] and in [7] was greater than 10 µM each time. The TGI in assay [8], in assay [9] and in assay [10] was greater than 10 µM throughout.
`Fc1c(F)c(C(F)(F)F)c(F)c(F)c1N/N=C/c1cn(Cc2ccccc2)c2ccccc12`: the TGI in assay [1] is 54 µM; in [2] it was 41.5 µM; in [3], 72.7 µM; in [4], 36 µM; in assay [5], 83.6 µM; in assay [6], 79.2 µM. The TGI in assay [7] was 79.9 µM; in assay [8] it was 26.8 µM; in assay [9], 87.1 µM; in [10], 78.9 µM.
On to `COc1ccc(C)cc1Nc1nnc(-c2ccc(N)cc2)s1`, for which the TGI in [1], in [2], in assay [3], in assay [4], in [5] and in assay [6] was greater than 100 µM throughout. Moreover, the TGI in assay [7], in assay [8], in assay [9] and in assay [10] was greater than 100 µM each time.
Consider `COc1ccc2c(c1)CC[C@@H]1[C@@H]2CC[C@]2(C)C(=O)/C(=C/c3ccc(O)c(OC)c3)C[C@@H]12`, for which the TGI in assay [1], in assay [2], in assay [3], in [4], in [5] and in [6] was greater than 100 µM throughout. Further, the TGI in [7], in assay [8], in [9] and in [10] was greater than 100 µM each time.
On to `Cn1c(=O)c2c(nc(NCCNc3nc4c(c(=O)n(C)c(=O)n4C)n3C)n2C)n(C)c1=O`, for which the TGI in [1], in assay [2], in [3], in [4], in assay [5] and in assay [6] was greater than 100 µM throughout. Further, the TGI in [7], in assay [9] and in assay [10] was greater than 100 µM in each case.
Regarding `O=C(COc1ccc(Cl)cc1Cl)N/N=C/C=C/c1ccc([N+](=O)[O-])o1`, the TGI in assay [2] was 59.8 µM; in [3], greater than 100 µM; in assay [4], 5.26 µM; in assay [5], greater than 100 µM; in assay [6], greater than 100 µM; in assay [7] it was 39 µM. The values for the TGI in assay [9] and in assay [10] were greater than 100 µM and 61.8 µM, respectively.
For `O=S(O)c1cc(Cl)cc(Cl)c1OCc1ccccc1`, the TGI in assay [1], in assay [2], in assay [7], in [9] and in assay [10] was greater than 100 µM in each case.
On to `COc1ccc(C2=NN(C(=O)c3cccnc3)C(O)(c3cc(F)c(Cl)cc3Cl)C2)cc1OC` (configuration not stated), for which the TGI is 34.2 µM in assay [1]; 33.5 µM in assay [2]; greater than 100 µM in assay [3]; 25 µM in [4]; greater than 100 µM in assay [5]; 43.3 µM in assay [6]. The TGI was 71.7 µM in [7], 27.8 µM in [8], 69 µM in assay [9] and greater than 100 µM in assay [10].
